Data: patent publication US12528815B2, “5-amino-8-(4-pyridyl)-[1,2,4]triazolo[4,3-c]pyrimidin-3-one compounds for use against cancer” (Nxera Pharma UK Limited, priority 2020, dated 2026)

Tests used:
[1] = biological target: T1, human adenosine A2A receptor (Homo sapiens, UniProt P29274); test: Inhibition binding assay, human adenosine A2A receptor membranes, [3H]ZM241385; details: 1 nM [3H]ZM241385, HEK293-hA2A membranes, 25° C., 1 h; IC50 converted to Ki with Cheng-Prusoff; read-out: A2A pKi (converted)
T1 construct: expressed in transfected cells; host or cells: HEK293 cells infected with BacMam
T1 sequence (P29274 whole entry): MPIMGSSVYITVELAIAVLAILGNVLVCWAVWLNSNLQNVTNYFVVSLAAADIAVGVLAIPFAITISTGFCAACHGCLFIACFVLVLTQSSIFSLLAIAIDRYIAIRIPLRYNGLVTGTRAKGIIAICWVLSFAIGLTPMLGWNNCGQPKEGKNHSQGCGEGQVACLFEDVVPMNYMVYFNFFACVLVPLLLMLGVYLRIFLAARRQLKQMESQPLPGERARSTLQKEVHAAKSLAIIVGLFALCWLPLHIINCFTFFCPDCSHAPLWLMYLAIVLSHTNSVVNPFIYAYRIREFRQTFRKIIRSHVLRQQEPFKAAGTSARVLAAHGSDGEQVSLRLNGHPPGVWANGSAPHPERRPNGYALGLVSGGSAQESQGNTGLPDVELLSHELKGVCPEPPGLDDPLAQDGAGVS
Outline: (§1)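 Membranes from BacMam-infected HEK293 cells (0.2 μg A2A, 1.4 μg A1) incubated 1 h at 25° C with test compound and 1 nM [3H]ZM241385 (A2A; 50 mM Tris-HCl pH 7.4) or [3H]DPCPX (A1; plus 100 mM NaCl, 10 mM MgCl2). Nonspecific: 1 μM CGS15943 or DPCPX. Filtration, scintillation; IC50 converted to Ki via Cheng-Prusoff.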

[2] = biological target: T2, human adenosine A1 receptor (Homo sapiens, UniProt P30542); test: Inhibition binding assay, human adenosine A1 receptor membranes, [3H]DPCPX; details: 1 nM [3H]DPCPX, 25° C., 1 h; IC50 converted to Ki with Cheng-Prusoff; read-out: A1 pKi (converted)
T2 construct: expressed in transfected cells; host or cells: HEK293 cells infected with BacMam (the same paragraph also labels the preparation CHO-hA1)
T2 sequence (P30542 1-326): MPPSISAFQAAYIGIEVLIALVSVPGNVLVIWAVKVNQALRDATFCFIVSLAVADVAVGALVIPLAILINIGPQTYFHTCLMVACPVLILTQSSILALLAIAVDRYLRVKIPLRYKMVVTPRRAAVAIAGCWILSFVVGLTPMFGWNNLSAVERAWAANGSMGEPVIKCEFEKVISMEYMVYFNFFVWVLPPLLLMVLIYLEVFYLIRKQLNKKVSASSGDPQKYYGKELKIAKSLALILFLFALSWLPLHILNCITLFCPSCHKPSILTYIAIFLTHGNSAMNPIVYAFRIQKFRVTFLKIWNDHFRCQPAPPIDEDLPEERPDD
Outline: as §1

| Ki [1] [nM] | Ki [2] [nM] | Compound |
| --- | --- | --- |
| 0.126 | 15.8 | Cc1cc(-c2c(-c3ccccc3)nc(N)n3c(=O)n(Cc4ccccc4CN(C)C)nc23)cc(C)n1 [Example 1-24, 5-amino-2-[[2-[(dimethylamino)methyl]phenyl]methyl]-8-(2,6-dimethyl-4-pyridyl)-7-phenyl-[1,2,4]triazolo[4,3-c]pyrimidin-3-one] |
| 0.2 | 6.31 | CCOc1ccccc1Cn1nc2c(-c3cc(C)nc(C)c3)c(-c3ccccc3)nc(N)n2c1=O [Example 1-25, 5-amino-8-(2,6-dimethyl-4-pyridyl)-2-[(2-ethoxyphenyl)methyl]-7-phenyl-[1,2,4]triazolo[4,3-c]pyrimidin-3-one] |
| 15.8 | 794 | Cc1cc(-c2c(-c3ccccc3)nc(N)n3c(=O)n([C@H](C)c4ccncc4)nc23)cc(C)n1 [Example 1-26, (R)-5-amino-8-(2,6-dimethyl-4-pyridyl)-7-phenyl-2-[1-(4-pyridyl)ethyl]-[1,2,4]triazolo[4,3-c]pyrimidin-3-one] |
| 10 | 251 | Cc1cc(-c2c(-c3ccccc3)nc(N)n3c(=O)n(C(C)c4cccnc4)nc23)cc(C)n1 (centres unmarked) [Example 1-27, 5-amino-8-(2,6-dimethyl-4-pyridyl)-7-phenyl-2-[1-(3-pyridyl)ethyl]-[1,2,4]triazolo[4,3-c]pyrimidin-3-one] |
| 0.2 | 63.1 | COc1ncccc1Cn1nc2c(-c3cc(C)nc(C)c3)c(-c3ccccc3)nc(N)n2c1=O [Example 1-28, 5-amino-8-(2,6-dimethyl-4-pyridyl)-2-[(2-methoxy-3-pyridyl)methyl]-7-phenyl-[1,2,4]triazolo[4,3-c]pyrimidin-3-one] |
| 0.501 | 12.6 | COc1cc(C)nc(Cn2nc3c(-c4cc(C)nc(C)c4)c(-c4ccccc4)nc(N)n3c2=O)c1 [Example 1-29, 5-amino-8-(2,6-dimethyl-4-pyridyl)-2-[(4-methoxy-6-methyl-2-pyridyl)methyl]-7-phenyl-[1,2,4]triazolo[4,3-c]pyrimidin-3-one] |
| 0.501 | 39.8 | Cc1cc(-c2c(-c3ccccc3)nc(N)n3c(=O)n(Cc4ccccc4C4CCNCC4)nc23)cc(C)n1 [Example 1-30, 5-amino-8-(2,6-dimethyl-4-pyridyl)-7-phenyl-2-[[2-(4-piperidyl)phenyl]methyl]-[1,2,4]triazolo[4,3-c]pyrimidin-3-one] |
| 10 | 316 | Cc1cc(-c2c(-c3ccccc3)nc(N)n3c(=O)n(C(CNCC(F)(F)F)c4ccccc4)nc23)cc(C)n1 (centres unmarked) [Example 1-31, 5-amino-8-(2,6-dimethyl-4-pyridyl)-7-phenyl-2-[1-phenyl-2-(2,2,2-trifluoroethylamino)ethyl]-[1,2,4]triazolo[4,3-c]pyrimidin-3-one] |
| 0.126 | 3.98 | Cc1cc(-c2c(-c3ccccc3)nc(N)n3c(=O)n(Cc4ccccc4CC4CCNCC4)nc23)cc(C)n1 [Example 1-32, 5-amino-8-(2,6-dimethyl-4-pyridyl)-7-phenyl-2-[[2-(4-piperidylmethyl)phenyl]methyl]-[1,2,4]triazolo[4,3-c]pyrimidin-3-one] |
| 25.1 | 1000 | COc1ccc(Cn2nc3c(-c4cc(C)nc(C)c4)c(-c4ccccc4)nc(N)n3c2=O)nn1 [Example 1-33, 5-amino-8-(2,6-dimethyl-4-pyridyl)-2-[(6-methoxypyridazin-3-yl)methyl]-7-phenyl-[1,2,4]triazolo[4,3-c]pyrimidin-3-one] |
| 1 | 100 | Cc1cc(-c2c(-c3ccccc3)nc(N)n3c(=O)n(C(CN)c4c(F)cccc4F)nc23)cc(C)n1 (centres unmarked) [Example 1-34, 5-amino-2-(2-amino-1-(2,6-difluorophenyl)ethyl)-8-(2,6-dimethylpyridin-4-yl)-7-phenyl-[1,2,4]triazolo[4,3-c]pyrimidin-3(2H)-one] |
| 15.8 | 1000 | Cc1cc(-c2c(-c3ccccc3)nc(N)n3c(=O)n(Cc4ncc(F)cn4)nc23)cc(C)n1 [Example 1-35, 5-amino-8-(2,6-dimethyl-4-pyridyl)-2-[(5-fluoropyrimidin-2-yl)methyl]-7-phenyl-[1,2,4]triazolo[4,3-c]pyrimidin-3-one] |
| 0.251 | 100 | Cc1cc(-c2c(-c3ccccc3)nc(N)n3c(=O)n(Cc4ccc(F)c(N)n4)nc23)cc(C)n1 [Example 1-36, 5-amino-2-[(6-amino-5-fluoro-2-pyridyl)methyl]-8-(2,6-dimethyl-4-pyridyl)-7-phenyl-[1,2,4]triazolo[4,3-c]pyrimidin-3-one] |
| 63.1 | > 3160 | Cc1cc(-c2c(-c3ccccc3)nc(N)n3c(=O)n(Cc4ccc(O)nn4)nc23)cc(C)n1 [Example 1-37, 5-amino-8-(2,6-dimethyl-4-pyridyl)-2-[(6-hydroxypyridazin-3-yl)methyl]-7-phenyl-[1,2,4]triazolo[4,3-c]pyrimidin-3-one] |
| 0.631 | 63.1 | Cc1cc(-c2c(-c3ccccc3)nc(N)n3c(=O)n(Cc4ncc(F)cc4Cl)nc23)cc(C)n1 [Example 1-39, 5-amino-2-[(3-chloro-5-fluoro-2-pyridyl)methyl]-8-(2,6-dimethyl-4-pyridyl)-7-phenyl-[1,2,4]triazolo[4,3-c]pyrimidin-3-one] |
| 31.6 | 316 | Cc1cc(-c2c(-c3ccccc3)nc(N)n3c(=O)n(Cc4cccnn4)nc23)cc(C)[n+]1[O-] [Example 1-43, 5-amino-8-(2,6-dimethyl-1-oxido-pyridin-1-ium-4-yl)-7-phenyl-2-(pyridazin-3-ylmethyl)-[1,2,4]triazolo[4,3-c]pyrimidin-3-one] |
| 7.94 | 501 | COc1cnc(Cn2nc3c(-c4cc(C)nc(CO)c4)c(-c4ccccc4)nc(N)n3c2=O)c(F)c1 [Example 1-47, 5-amino-2-[(3-fluoro-5-methoxy-2-pyridyl)methyl]-8-[2-(hydroxymethyl)-6-methyl-4-pyridyl]-7-phenyl-[1,2,4]triazolo[4,3-c]pyrimidin-3-one] |
| 10 | > 2510 | Cc1cc(-c2c(-c3ccccc3)nc(N)n3c(=O)n(Cc4ccc(F)c(O)n4)nc23)cc(CO)n1 [Example 1-48, 5-amino-2-[(5-fluoro-6-hydroxy-2-pyridyl)methyl]-8-[2-(hydroxymethyl)-6-methyl-4-pyridyl]-7-phenyl-[1,2,4]triazolo[4,3-c]pyrimidin-3-one] |
| 1.58 | 398 | [2H]c1c([2H])c([2H])c(-c2nc(N)n3c(=O)n(Cc4ccc(F)cn4)nc3c2-c2cc(C)nc(CO)c2)c([2H])c1[2H] [Example 1-49, 5-amino-2-[(5-fluoro-2-pyridyl)methyl]-8-[2-(hydroxymethyl)-6-methyl-4-pyridyl]-7-(2,3,4,5,6-pentadeuteriophenyl)-[1,2,4]triazolo[4,3-c]pyrimidin-3-one] |
| 1 | 200 | Cc1cc(-c2c(-c3ccccc3)nc(N)n3c(=O)n(Cc4ncc(F)cc4Cl)nc23)cc(CO)n1 [Example 1-50, 5-amino-2-[(3-chloro-5-fluoro-2-pyridyl)methyl]-8-[2-(hydroxymethyl)-6-methyl-4-pyridyl]-7-phenyl-[1,2,4]triazolo[4,3-c]pyrimidin-3-one] |
| 2 | 251 | [2H]c1c([2H])c([2H])c(-c2nc(N)n3c(=O)n(Cc4ccc(F)c(N)n4)nc3c2-c2cc(C)nc(CO)c2)c([2H])c1[2H] [Example 1-51, 5-amino-2-[(6-amino-5-fluoro-2-pyridyl)methyl]-8-[2-(hydroxymethyl)-6-methyl-4-pyridyl]-7-(2,3,4,5,6-pentadeuteriophenyl)-[1,2,4]triazolo[4,3-c]pyrimidin-3-one] |
| 2.51 | 501 | Cc1cc(-c2c(-c3ccccc3)nc(N)n3c(=O)n(Cc4ccc(Br)cn4)nc23)cc(CO)n1 [Example 1-53, 5-amino-2-[(5-bromo-2-pyridyl)methyl]-8-[2-(hydroxymethyl)-6-methyl-4-pyridyl]-7-phenyl-[1,2,4]triazolo[4,3-c]pyrimidin-3-one] |
| 1.58 | 501 | Cc1cc(-c2c(-c3ccccc3)nc(N)n3c(=O)n(Cc4ccc(Cl)cn4)nc23)cc(CO)n1 [Example 1-55, 5-amino-2-[(5-chloro-2-pyridyl)methyl]-8-[2-(hydroxymethyl)-6-methyl-4-pyridyl]-7-phenyl-[1,2,4]triazolo[4,3-c]pyrimidin-3-one] |
| 3.98 | 200 | Cc1cc(-c2c(-c3ccccc3)nc(N)n3c(=O)n(Cc4cccnn4)nc23)cc(CO)n1 [Example 1-56, 5-amino-8-[2-(hydroxymethyl)-6-methyl-4-pyridyl]-7-phenyl-2-(pyridazin-3-ylmethyl)-[1,2,4]triazolo[4,3-c]pyrimidin-3-one] |
| 12.6 | 631 | Cc1cc(-c2c(-c3ccc(F)cc3)nc(N)n3c(=O)n(Cc4cccnn4)nc23)cc(CO)n1 [Example 1-58, 5-amino-7-(4-fluorophenyl)-8-[2-(hydroxymethyl)-6-methyl-4-pyridyl]-2-(pyridazin-3-ylmethyl)-[1,2,4]triazolo[4,3-c]pyrimidin-3-one] |
